Laboratory results: US5929038A, “Pharmaceutical preparations which inhibit hepatitis B virus (HBV) replication” (Choongwae Pharmaceutical Co., Ltd., priority 1992, dated 1999)
Where “and” joins values, the source holds several entries; their conditions need not be identical. Equal entries are not always repeated.

Tests used:
[1] = system: central and peripheral nervous system; conditions: in vivo; cited from earlier work
hematopoietic cells = conditions: cited from earlier work
HBV DNA replication = experiment: Effects on HBV DNA replication in 2.2.15 cells in culture (intracellular HBV DNA and HBV virion DNA); assay type: cell-based, hepatitis B virus; conditions: ddC 25 μM
[2] = 24 hrs following the 9th day of treatment

Compound: Nc1ccn([C@H]2CC[C@@H](CO)O2)c(=O)n1 [ddC, 2',3'-dideoxycytidine, reference compound]
- toxicity on the central and peripheral nervous system [1]: high toxicity on the central and peripheral nervous system
- toxicity on hematopoietic cells (hematopoietic cells): toxicity on hematopoietic cells
- Intracellular HBV DNA, Mono. (HBV DNA replication; [2]): 1.1 pg/μg cell DNA and 1.2 pg/μg cell DNA and 0.8 pg/μg cell DNA and 1.0 pg/μg cell DNA
- Intracellular HBV DNA, RI (Replicating Intermediate) (HBV DNA replication; [2]): 1 pg/μg cell DNA
- HBV Virion DNA, Day 0 (HBV DNA replication; Day 0, before first dose): 65 pg/ml culture medium and 70 pg/ml culture medium and 78 pg/ml culture medium and 60 pg/ml culture medium
- HBV Virion DNA, Day 3 (HBV DNA replication; Day 3): 41 pg/ml culture medium and 33 pg/ml culture medium and 31 pg/ml culture medium and 40 pg/ml culture medium
- HBV Virion DNA, Day 6 (HBV DNA replication; Day 6): 15 pg/ml culture medium and 13 pg/ml culture medium and 10 pg/ml culture medium and 12 pg/ml culture medium
